# Assay results: patent publication US6864219B2, “Substituted aryl ketones” (Bayer Aktiengesellschaft, priority 2000, dated 2005)
# Assay: log P determination by HPLC on reversed-phase column (C 18), EEC Directive 79/831 V.A8
# Type: physicochemical
# Conditions: for logP (Physical data, Table 1): labelled a): acidic range, 0.1% aqueous phosphoric acid/acetonitrile gradient, 43° C.; for chromatographic logP: reversed-phase HPLC column (C 18), mobile-phase label not given, read-out: Log P (preparation examples)
# Description: The log P values given in Table 1 were determined in accordance with EEC Directive 79/831 V.A8 by HPLC (High Performance Liquid Chromatography) on a reversed-phase column (C 18). Temperature: 43° C.
# (a) Mobile phases for the determination in the acidic range: 0.1% aqueous phosphoric acid, acetonitrile; linear gradient of 10% acetonitrile to 90% acetonitrile—the corresponding data in Table 1 are labelled ^a).
# (b) Mobile phases for the determination in the neutral range: 0.01 molar aqueous phosphate buffer solution, acetonitrile, linear gradient from 10% acetonitrile to 90% acetonitrile—the corresponding data in Table 1 are labelled ^b).
Compound,"logP (Physical data, Table 1)",chromatographic logP
CCn1ncc(C(=O)c2ccc(Cl)c(OCCn3nc(C)n(C)c3=O)c2C)c1OCc1ccc(Br)cc1 [Example 12],logP = 2.07^a),
CCn1ncc(C(=O)c2ccc(SC)c(OCCn3nc(C)n(C)c3=O)c2Cl)c1OCc1ccc(Br)cc1 [Example 14],logP = 2.05^a),
CCn1ncc(C(=O)c2ccc(Cl)c(OCCn3nc(OC)n(C)c3=O)c2Cl)c1O [Example 15],logP = 1.69^a),
CCn1ncc(C(=O)c2ccc(Cl)c(OCCn3nc(SC)n(C)c3=O)c2Cl)c1O [Example 16],logP = 1.92^a),
CCn1ncc(C(=O)c2ccc(Cl)c(OCCn3nc(OC)n(CC)c3=O)c2Cl)c1O [Example 17],logP = 1.93^a),
CCn1ncc(C(=O)c2ccc(Cl)c(OCCn3nc(COC)n(C)c3=O)c2Cl)c1O [Example 18],logP = 1.62^a),
COCc1nn(CCOc2c(Cl)ccc(C(=O)C3=C(O)CCCC3=O)c2Cl)c(=O)n1C [Example 19],logP = 2.06^a),
CCn1ncc(C(=O)c2ccc(SC)c(OC[C@@H]3CCC(=O)N3)c2Cl)c1O [Example 20],(S enantiomer) logP = 1.60^a),
CSc1nn(CCOc2c(Cl)ccc(C(=O)C3=C(O)CCCC3=O)c2Cl)c(=O)n1C [Example 21],logP = 2.39^a),
CCn1c(OC)nn(CCOc2c(Cl)ccc(C(=O)C3=C(O)CCCC3=O)c2Cl)c1=O [Example 22],logP = 2.16^a),
CSc1ccc(C(=O)C2=C(O)CCCC2=O)c(Cl)c1OC[C@@H]1CCC(=O)N1 [Example 24],(S enantiomer) logP = 1.98^a),
CCn1ncc(C(=O)c2ccc(Cl)c(OCCn3nc(OC)n(CC)c3=O)c2C)c1O [Example 25],logP = 1.88^a),
CCn1c(OC)nn(CCOc2c(Cl)ccc(C(=O)C3=C(O)CCCC3=O)c2C)c1=O [Example 26],logP = 2.15^a),
CCn1ncc(C(=O)c2ccc(Cl)c(OCCn3nc(SC)n(C)c3=O)c2C)c1O [Example 27],logP = 2.11^a),
CSc1nn(CCOc2c(Cl)ccc(C(=O)C3=C(O)CCCC3=O)c2C)c(=O)n1C [Example 28],logP = 2.38^a),
CCn1ncc(C(=O)c2ccc(Cl)c(OCCn3nc(OC)n(CC)c3=O)c2C)c1O [Example 29],logP = 2.12^a),
CCn1ncc(C(=O)c2ccc(Cl)c(OCCn3nc(COC)n(C)c3=O)c2C)c1O [Example 30],logP = 1.78^a),
CCn1c(OC)nn(CCOc2c(Cl)ccc(C(=O)C3=C(O)CCCC3=O)c2C)c1=O [Example 31],logP = 2.38^a),
COCc1nn(CCOc2c(Cl)ccc(C(=O)C3=C(O)CCCC3=O)c2C)c(=O)n1C [Example 32],logP = 2.04^a),
CCn1ncc(C(=O)c2ccc(SC)c(OCCn3nc(SC)n(C)c3=O)c2Cl)c1O [Example 33],logP = 1.97^a),

Compound,"logP (Physical data, Table 1)",chromatographic logP
CSc1ccc(C(=O)C2=C(O)CCCC2=O)c(Cl)c1OCCn1nc(SC)n(C)c1=O [Example 34],logP = 2.36^a),
CCn1ncc(C(=O)c2ccc(Cl)c(OC[C@@H]3CCC(=O)N3)c2C)c1O [Example 35],(S enantiomer) [α]D^20 = +2.3 logP = 1.67^a),
Cc1c(C(=O)C2=C(O)CCCC2=O)ccc(Cl)c1OC[C@@H]1CCC(=O)N1 [Example 36],(S enantiomer) logP = 1.94^a),
CCn1ncc(C(=O)c2ccc(Cl)c(OC[C@@H]3CCC(=O)N3C)c2C)c1O [Example 37],(S enantiomer) logP = 1.85^a),
Cc1c(C(=O)C2=C(O)CCCC2=O)ccc(Cl)c1OC[C@@H]1CCC(=O)N1C [Example 38],(S enantiomer) logP = 2.10^a),
CN1C(=O)CC[C@H]1COc1c(Cl)ccc(C(=O)C2=C(O)CCCC2=O)c1Cl [Example 39],(S enantiomer) logP = 2.12^a),
CCn1ncc(C(=O)c2ccc(Cl)c(OC[C@@H]3CCC(=O)N3C)c2Cl)c1O [Example 40],(S enantiomer) logP = 1.67^a),
COCc1nn(CCOc2c(SC)ccc(C(=O)C3=C(O)CCCC3=O)c2Cl)c(=O)n1C [Example 44],logP = 2.05^a),
CCn1ncc(C(=O)c2ccc(SC)c(OC[C@@H]3CCC(=O)N3C)c2Cl)c1O [Example 45],(S enantiomer) logP = 1.68^a),
CSc1ccc(C(=O)C2=C(O)CCCC2=O)c(Cl)c1OC[C@@H]1CCC(=O)N1C [Example 46],(S enantiomer) logP = 2.13^a),
O=C1CC[C@@H](COc2c(Cl)ccc(C(=O)C3=C(O)CCCC3=O)c2Cl)N1 [Example 47],(S enantiomer) logP = 1.95^a),
CCn1ncc(C(=O)c2ccc(Cl)c(OC[C@@H]3CCC(=O)N3)c2Cl)c1O [Example 48],(S enantiomer) logP = 1.51^a),
CCn1ncc(C(=O)c2ccc(Br)c(OC[C@@H]3CCC(=O)N3)c2Br)c1O [Example 60],(S enantiomer) logP = 1.56^a),
O=C1CC[C@@H](COc2c(Br)ccc(C(=O)C3=C(O)CCCC3=O)c2Br)N1 [Example 61],(S enantiomer) logP = 2.02^a),
"COC(=O)c1ccc(Cl)c(OCCn2nc(C)n(C)c2=O)c1C [II-1, methyl 4-chloro-3-[2-(3′,4′-dimethyl-1′,2′,4′-1H-triazolin-5′-on-1′-yl)-ethoxy]-2-methyl-benzoate]",,1.94
"COC(=O)c1ccc(SC)c(OCCn2nc(C)n(C)c2=O)c1C [II-2, methyl 3-[2-(3′,4′-dimethyl-1′,2′,4′-1H-triazolin-5′-on-1′-yl)-ethoxy]-2-methyl-4-methylthio-benzoate]",,1.89
"CCOC(=O)c1ccc(S(C)(=O)=O)c(OCCn2nc(C)n(C)c2=O)c1C [II-3, ethyl 3-[2-(3′,4′-dimethyl-1′,2′,4′-1H-triazolin-5′-on-1′-yl)-ethoxy]-2-methyl-4-methylsulphonyl-benzoate]",,1.76
"Cc1c(C(=O)O)ccc(Cl)c1OCCn1nc(C)n(C)c1=O [II-4, 4-chloro-3-[2-(3′,4′-dimethyl-1′,2′,4′-1H-triazolin-5′-on-1′-yl)-ethoxy]-2-methyl-benzoic acid]",,1.37
"Cc1nn(CCOc2c(Cl)ccc(C(=O)Cl)c2Cl)c(=O)n1C [II-5, 2,4-dichloro-3-[2-(3′,4′-dimethyl-1′,2′,4′-1H-triazolin-5′-on-1′-yl)-ethoxy]-2-benzoyl chloride]",,1.24
"CCOC(=O)c1ccc(Cl)c(OCn2nc(OCC)n(C)c2=O)c1Cl [II-6, ethyl 3-(3′-ethoxy-4′-methyl-1′,2′,4′-1H-triazolin-5′-on-1′-yl)-methoxy-2,4-dichloro-benzoate]",,2.77
